Laboratory results published in patent publication US10144706B2 (BRISTOL-MYERS SQUIBB COMPANY, priority 2016, dated 2018).

Target: T1, PD-1/PD-L1 interaction (PD-1-Ig / PD-L1-His) (Homo sapiens, UniProt Q9NZQ7)
T1 construct: hPDL1(18-239)-TVMV-His; TVMV protease site linker (C); made in house; host or cells: HEK293T
Assay: PD-1/PD-L1 Homogenous Time-Resolved Fluorescence (HTRF) binding assay
Details: IC50 range class; PD-L1-His 10 nM, PD-1-Ig 20 nM; read-out: Range or IC50
How it was run: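 Human PD-L1-His (10 nM final) was pre-incubated with inhibitor for 15 min, then PD-1-Ig (20 nM final) was added for a further 15 min in dPBS with 0.1% BSA and 0.05% Tween-20. Binding was detected by HTRF using Eu-cryptate anti-Ig (1 nM) and APC anti-His (20 nM).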

T1 sequence (Q9NZQ7 with tags, fused parts or gaps): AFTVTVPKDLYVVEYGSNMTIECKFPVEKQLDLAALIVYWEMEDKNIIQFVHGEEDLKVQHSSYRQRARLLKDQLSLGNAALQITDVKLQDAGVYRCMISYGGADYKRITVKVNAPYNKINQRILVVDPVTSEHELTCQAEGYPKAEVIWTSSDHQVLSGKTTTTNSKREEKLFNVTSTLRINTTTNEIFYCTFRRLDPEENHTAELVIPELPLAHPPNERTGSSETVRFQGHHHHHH

First: Cc1c(OCCCN(C)CCC(N)=O)cccc1-c1cccc(OCCCN2CC[C@@H](O)C2)c1C [Example 2054, (R)-3-((3-((3′-(3-(3-hydroxypyrrolidin-1-yl)propoxy)-2,2′-dimethyl-[1,1′-biphenyl]-3-yl)oxy)propyl)(methyl)amino)propanamide]
Second: Cc1c(OCCCN(C)C)cccc1-c1cccc(OCCCN2CC[C@@H](O)C2)c1C [Example 3007, (R)-1-(3-((3′-(3-(dimethylamino)propoxy)-2,2′-dimethyl-[1,1′-biphenyl]-3-yl)oxy)propyl)pyrrolidin-3-ol]
The IC50 of the first is higher: 20.1 to 90 nM for the first, 0.04 to 20 nM for the second. The second is the more potent here.

N#Cc1cncc(COc2cc(OCc3cccc(-c4cccc(COc5cc(O)c(CNC(CCO)C(=O)O)cc5Cl)c4Cl)c3Cl)c(Cl)cc2CNC(CCO)C(=O)O)c1 (stereo not drawn) [Example 41180] and Cc1c(COc2cc(OCc3cncc(C#N)c3)c(CN[C@@H](CC#N)C(=O)O)cc2Cl)cccc1-c1cccc(COc2cc(OCc3cncc(C#N)c3)c(CN[C@@H](CC#N)C(=O)O)cc2Cl)c1C [Example 40470] fall in the same range of IC50: 0.04 to 20 nM for the first, 0.04 to 20 nM for the second.

Cc1cc(OCc2cccc(-c3cccc(COc4cc(C)c(CN5CCCC[C@H]5C(=O)O)cc4Cl)c3C)c2C)c(Cl)cc1CN1CCCC[C@H]1C(=O)O [Example 5501, (2S,2′S)-1,1′-(((((2,2′-dimethyl-[1,1′-biphenyl]-3,3′-diyl)bis(methylene))bis(oxy))bis(5-chloro-2-methyl-4,1-phenylene))bis(methylene))bis(piperidine-2-carboxylic acid)] and Cc1c(COc2cc(OCc3cncc(C#N)c3)c(CN3CCC[C@H]3C(=O)O)cc2Cl)cccc1-c1cccc(COc2cc(OCc3cncc(C#N)c3)c(CN3CCC[C@H]3C(=O)O)cc2Cl)c1C [Example 40350] fall in the same range of IC50: 0.04 to 20 nM for the first, 0.04 to 20 nM for the second.

Cc1ccc(OCCCN2CC[C@@H](O)C2)cc1-c1cccc(OCCCN2CC[C@@H](O)C2)c1C [Example 1004, (3R,3′R)-1,1′-(((2,6′-dimethyl-[1,1′-biphenyl]-3,3′-diyl)bis(oxy))bis(propane-3,1-diyl))bis(pyrrolidin-3-ol)] and Cc1cc(OCCCN2CC[C@@H](O)C2)ccc1-c1cccc(OCCCN2CC[C@@H](O)C2)c1C [Example 3006, (3R,3′R)-1,1′-(((2,2′-dimethyl-[1,1′-biphenyl]-3,4′-diyl)bis(oxy))bis(propane-3,1-diyl))bis(pyrrolidin-3-ol)] fall in the same range of IC50: 1000 to 10000 nM for the first, 1000 to 10000 nM for the second.

Cc1c(COc2cc(OCc3cncc(C#N)c3)c(CNC(CO)(Cc3ccccc3)C(=O)O)cc2Cl)cccc1-c1cccc(COc2cc(OCc3cncc(C#N)c3)c(CNC(CO)(Cc3ccccc3)C(=O)O)cc2Cl)c1C (stereo not drawn) [Example 40200] and Cc1c(COc2cc(OCc3cncc(C#N)c3)c(CO)cc2Cl)cccc1-c1cccc(COc2cc(OCc3cncc(C#N)c3)c(CNC(C(=O)O)C(=O)O)cc2Cl)c1C [Example 50220] fall in the same range of IC50: 0.04 to 20 nM for the first, 0.04 to 20 nM for the second.

Compared with COCC(O)CNCCCOc1cccc(-c2cccc(OCCCNCC(O)COC)c2C)c1C (stereo not drawn) [Example 2094, 3,3′-((((2,2′-dimethyl-[1,1′-biphenyl]-3,3′-diyl)bis(oxy))bis(propane-3,1-diyl))bis(azanediyl))bis(1-methoxypropan-2-ol)], Cc1c(OCCCN2CC[C@@H](O)C2)cccc1-c1cccc(OCCCN2CCCCC2CO)c1C (mixture of isomers) [Example 2025, (3R)-1-(3-((3′-(3-(2-(hydroxymethyl)piperidin-1-yl)propoxy)-2,2′-dimethyl-[1,1′-biphenyl]-3-yl)oxy)propyl)pyrrolidin-3-ol] is higher in IC50: 0.04 to 20 nM for the first, 20.1 to 90 nM for the second.

First: Cc1c(OCCCN2CCCC(CO)C2)cccc1-c1cccc(OCCCN2CCCC(CO)C2)c1C (mixture of isomers) [Example 2026, ((((2,2′-dimethyl-[1,1′-biphenyl]-3,3′-diyl)bis(oxy))bis(propane-3,1-diyl))bis(piperidine-1,3-diyl))dimethanol]
Second: COc1cc2c(cc1OC)CN(CCCOc1cccc(-c3cccc(OCCCN4CC[C@@H](O)C4)c3C)c1C)CC2 [Example 2004, (R)-1-(3-((3′-(3-(6,7-dimethoxy-3,4-dihydroisoquinolin-2(1H)-yl)propoxy)-2,2′-dimethyl-[1,1′-biphenyl]-3-yl)oxy)propyl)pyrrolidin-3-ol]
The IC50 of the first is lower: 0.04 to 20 nM for the first, 20.1 to 90 nM for the second.

Cc1c(COc2cc(OCc3cncc(C#N)c3)c(CN3CCCC(C(=O)O)C3)cc2Cl)cccc1-c1cccc(COc2cc(OCc3cncc(C#N)c3)c(CN3CCCC(C(=O)O)C3)cc2Cl)c1C (stereo not drawn) [Example 40380] and Cc1c(COc2cc(OCc3cncc(C#N)c3)c(CN3CC[C@@H](O)C3)cc2Cl)cccc1-c1cccc(COc2cc(OCc3cncc(C#N)c3)c(CN3CC[C@@H](O)C3)cc2Cl)c1C [Example 2125, 5,5′-((((((2,2′-dimethyl-[1,1′-biphenyl]-3,3′-diyl)bis(methylene))bis(oxy))bis(4-chloro-6-(((R)-3-hydroxypyrrolidin-1-yl)methyl)-3,1-phenylene))bis(oxy))bis(methylene))dinicotinonitrile] fall in the same range of IC50: 0.04 to 20 nM for the first, 0.04 to 20 nM for the second.

Cc1c(COc2cc(OCc3cncc(C#N)c3)c(CO)cc2Cl)cccc1-c1cccc(COc2cc(OCc3cncc(C#N)c3)c(CN[C@@H](C(=O)O)[C@@H](C)O)cc2Cl)c1C [Example 50190] and Cc1c(COc2cc(OCc3cncc(C#N)c3)c(CO)cc2Cl)cccc1-c1cccc(COc2cc(OCc3cncc(C#N)c3)c(CN[C@H](C(=O)O)[C@@H](C)[C@H](C)O)cc2Cl)c1C [Example 50340] fall in the same range of IC50: 0.04 to 20 nM for the first, 0.04 to 20 nM for the second.

First: CC(CO)(CO)NCc1cc(Cl)c(OCc2cccc(-c3cccc(COc4cc(OCc5cncc(C#N)c5)c(CNC(C)(CO)CO)cc4Cl)c3)c2)cc1OCc1cncc(C#N)c1 [Example 40010]
Second: Cc1c(COc2cc(OCc3cncc(C#N)c3)c(CO)cc2Cl)cccc1-c1cccc(COc2cc(OCc3cncc(C#N)c3)c(CNC(CO)CO)cc2Cl)c1C [Example 2129, 5-((4-chloro-5-((3′-((2-chloro-5-((5-cyanopyridin-3-yl)methoxy)-4-(((1,3-dihydroxypropan-2-yl)amino)methyl)phenoxy)methyl)-2,2′-dimethyl-[1,1′-biphenyl]-3-yl)methoxy)-2-(hydroxymethyl)phenoxy)methyl)nicotinonitrile]
The IC50 of the first is lower: 0.04 to 20 nM for the first, 90.1 to 1000 nM for the second. The first is the more potent here.

First: N#Cc1cncc(COc2cc(OCc3cccc(-c4cccc(COc5cc(OCc6cncc(C#N)c6)c(C(=O)NC6COC6)cc5Cl)c4Cl)c3Cl)c(Cl)cc2C(=O)O)c1 [Example 90050]
Second: Cc1c(COc2cc(OCc3ccc(-n4cccn4)nc3)c(CN[C@@](C)(CO)C(=O)O)cc2Cl)cccc1-c1cccc(COc2cc(OCc3ccc(-n4cccn4)nc3)c(CN[C@@](C)(CO)C(=O)O)cc2Cl)c1C [Example 5022, (2S,2′S)-2,2′-((((((2,2′-dimethyl-[1,1′-biphenyl]-3,3′-diyl)bis(methylene))bis(oxy))bis(2-((6-(1H-pyrazol-1-yl)pyridin-3-yl)methoxy)-5-chloro-4,1-phenylene))bis(methylene))bis(azanediyl))bis(3-hydroxy-2-methylpropanoic acid)]
The IC50 of the first is higher: 90.1 to 1000 nM for the first, 0.04 to 20 nM for the second.

Same assay, conditions: numeric IC50; PD-L1-His 10 nM, PD-1-Ig 20 nM; read-out: Range or IC50

COC(=O)CC(CC(C)C)NCc1cc(Cl)c(OCc2cccc(-c3cccc(COc4cc(OCc5cncc(C#N)c5)c(CNC(CC(=O)OC)CC(C)C)cc4Cl)c3C)c2C)cc1OCc1cncc(C#N)c1 (stereo not drawn) [Example 40550] and Cc1c(OCCCN2CC[C@@H](O)C2)cccc1-c1cccc(S(=O)(=O)NCCCN(C)C)c1C [Example 3010, (R)—N-(3-(dimethylamino)propyl)-3′-(3-(3-hydroxypyrrolidin-1-yl)propoxy)-2,2′-dimethyl-[1,1′-biphenyl]-3-sulfonamide] are within 1.5-fold of each other in IC50: 9220 nM for the first, 10000 nM for the second.
